Values after ≈ are worked out from the molar mass of the structure shown.
Assays:
[1] = tested on: Bacillus cereus ATCC 10876; experiment: Broth microdilution MIC/MBC; settings: Bacillus cereus, ATCC10876
[2] = tested on: Staphylococcus aureus ATCC 43300; experiment: Broth microdilution MIC/MBC; settings: ATCC43300 / MRSA
[3] = tested on: Micrococcus luteus ATCC 10240; experiment: Broth microdilution MIC/MBC; settings: Micrococcus luteus, ATCC10240
A549 cell line = experiment: MTT cytotoxicity assay; assay type: cell-based
Method: (§1) Among all the newly synthesized compounds, four compounds designated as: 14, 20, 21 and 27 were selected for further testing of their cytotoxic properties at the doses of 10, 25, 50, 75 and 100 µM. The cytotoxic properties of the above compounds were tested on the cancer cell lines, i.e., A549 (ECACC 86012804) (non-small-cell lung cancer), T47D (ECACC 85102201) (breast cancer), HeLa (ATCC® CCL-2™) (cervical cancer) and normal line L929 (NCTC clone 929, ATCC® CCL-1™) (mouse fibroblasts) using the MTT test for 24- and 48 h cultures.
(§2) A549 (ECACC 86012804) (non-small-cell lung cancer) and T47D (ECACC 85102201) (breast cancer) were obtained from ECACC and propagated in Dulbecco’s Minimal Essential Medium, supplemented with 2 mM of glutamine, antibiotics ([…] streptomycin, 1% of 100 U/L penicillin) and 10% Fetal Bovine Serum. HeLa (ATCC® CCL-2™) (cervical cancer) and L929 (NCTC clone 929, ATCC® CCL-1™) (mouse fibroblasts) cell lines were obtained from ATCC and propagated in the Eagle Minimal Essential Medium supplemented with antibiotics ([…] streptomycin, 1% of 100 U/L penicillin) and with 10% and 5% FBS, respectively. The cell line was routinely grown in 75 cm^2 tissue culture flasks and kept in an incubator (humidified atmosphere of 5% CO2 at 37 °C). All examined cell lines were tested against mycoplasma contamination with microbiological assays.
(§3) The cell viability of tested compounds (14, 20, 21 and 27) was assessed by the MTT assay. In brief, the exponentially growing cells were plated in 100 μL/well in 96-well plates. After 24 h culturing, the cells were treated with different concentrations of compounds (range 10–100 μM). After 24 and 48 h of incubation, 10 μL of 5 mg/mL MTT was added to each well and the plates were incubated at 37 °C for additional 4 h. The medium was subsequently removed, the purple-colored precipitates of formazan were dissolved in 100 μL of DMSO. The color absorbance was recorded at 570 nm using a BioTek model EPOCH ELISA plate reader. All experiments were performed in triplicate. The absorbance values were in the range of linearity of the Lambert–Beer law.

T47D cell line = experiment: MTT cytotoxicity assay; assay type: cell-based
Method: as §1, §2, §3

HeLa cell line = experiment: MTT cytotoxicity assay; assay type: cell-based
Method: as §1, §2, §3

[4] = tested on: Staphylococcus aureus ATCC 25923; experiment: Broth microdilution MIC/MBC; settings: Staphylococcus aureus, ATCC25923
[5] = tested on: Staphylococcus aureus ATCC 29213; experiment: Broth microdilution MIC/MBC; settings: ATCC29213

O=C(N/N=C/c1cc(I)cc(I)c1O)c1ccccc1I [Compound 14, N-[(3,5-diiodo-2-hydroxyphenyl)methylidene]-2-iodobenzohydrazide]
MBC [1]: 250 µg/mL (≈ 405 µM) | MIC [1]: 125 µg/mL (≈ 202 µM) | MBC [2]: 1000 µg/mL (≈ 1620 µM) | MIC [2]: 250 µg/mL (≈ 405 µM) | MBC [3]: 125 µg/mL (≈ 202 µM) | MIC [3]: 62.5 µg/mL (≈ 101 µM) | melting point: 241 to 245 °C | cell proliferation (A549 cell line; A549, 24h, 10 µM, Repeat No 1): 86% | cell proliferation (A549 cell line; A549, 24h, 10 µM, Repeat No 2): 77% | cell proliferation (A549 cell line; A549, 24h, 25 µM, Repeat No 1): 103% | cell proliferation (A549 cell line; A549, 24h, 25 µM, Repeat No 2): 98% | cell proliferation (A549 cell line; A549, 24h, 50 µM, Repeat No 1): 89% | cell proliferation (A549 cell line; A549, 24h, 50 µM, Repeat No 2): 84% | cell proliferation (A549 cell line; A549, 24h, 75 µM, Repeat No 1): 87% | cell proliferation (A549 cell line; A549, 24h, 75 µM, Repeat No 2): 89% | cell proliferation (A549 cell line; A549, 24h, 100 µM, Repeat No 1): 82% | cell proliferation (A549 cell line; A549, 24h, 100 µM, Repeat No 2): 74% | cell proliferation (A549 cell line; A549, 48h, 10 µM, Repeat No 1): 93% | cell proliferation (A549 cell line; A549, 48h, 10 µM, Repeat No 2): 79% | cell proliferation (A549 cell line; A549, 48h, 25 µM, Repeat No 1): 87% | cell proliferation (A549 cell line; A549, 48h, 25 µM, Repeat No 2): 91% | cell proliferation (A549 cell line; A549, 48h, 50 µM, Repeat No 1): 91% | cell proliferation (A549 cell line; A549, 48h, 50 µM, Repeat No 2): 83% | cell proliferation (A549 cell line; A549, 48h, 75 µM, Repeat No 1): 89% | cell proliferation (A549 cell line; A549, 48h, 75 µM, Repeat No 2): 89% | cell proliferation (A549 cell line; A549, 48h, 100 µM, Repeat No 1): 90% | cell proliferation (A549 cell line; A549, 48h, 100 µM, Repeat No 2): 96% | cell proliferation (T47D cell line; 24h, 10 µM, Repeat No 1): 86% | cell proliferation (T47D cell line; 24h, 10 µM, Repeat No 2): 89% | cell proliferation (T47D cell line; 24h, 25 µM, Repeat No 1): 71% | cell proliferation (T47D cell line; 24h, 25 µM, Repeat No 2): 74% | cell proliferation (T47D cell line; 24h, 50 µM, Repeat No 1): 79% | cell proliferation (T47D cell line; 24h, 50 µM, Repeat No 2): 75% | cell proliferation (T47D cell line; 24h, 75 µM, Repeat No 1): 87% | cell proliferation (T47D cell line; 24h, 75 µM, Repeat No 2): 80% | cell proliferation (T47D cell line; 24h, 100 µM, Repeat No 1): 79% | cell proliferation (T47D cell line; 24h, 100 µM, Repeat No 2): 73% | cell proliferation (T47D cell line; 48h, 10 µM, Repeat No 1): 71% | cell proliferation (T47D cell line; 48h, 10 µM, Repeat No 2): 79% | cell proliferation (T47D cell line; 48h, 25 µM, Repeat No 1): 81% | cell proliferation (T47D cell line; 48h, 25 µM, Repeat No 2): 79% | cell proliferation (T47D cell line; 48h, 50 µM, Repeat No 1): 81% | cell proliferation (T47D cell line; 48h, 50 µM, Repeat No 2): 79% | cell proliferation (T47D cell line; 48h, 75 µM, Repeat No 1): 72% | cell proliferation (T47D cell line; 48h, 75 µM, Repeat No 2): 69% | cell proliferation (T47D cell line; 48h, 100 µM, Repeat No 1): 74% | cell proliferation (T47D cell line; 48h, 100 µM, Repeat No 2): 69% | cell proliferation (HeLa cell line; 24h, 10 µM, Repeat No 1): 88% | cell proliferation (HeLa cell line; 24h, 10 µM, Repeat No 2): 81% | cell proliferation (HeLa cell line; 24h, 25 µM, Repeat No 1): 93% | cell proliferation (HeLa cell line; 24h, 25 µM, Repeat No 2): 91% | cell proliferation (HeLa cell line; 24h, 50 µM, Repeat No 1): 88% | cell proliferation (HeLa cell line; 24h, 50 µM, Repeat No 2): 82% | cell proliferation (HeLa cell line; 24h, 75 µM, Repeat No 1): 98% | cell proliferation (HeLa cell line; 24h, 75 µM, Repeat No 2): 89% | cell proliferation (HeLa cell line; 24h, 100 µM, Repeat No 1): 82% | cell proliferation (HeLa cell line; 24h, 100 µM, Repeat No 2): 89% | cell proliferation (HeLa cell line; 48h, 10 µM, Repeat No 1): 76% | cell proliferation (HeLa cell line; 48h, 10 µM, Repeat No 2): 79% | cell proliferation (HeLa cell line; 48h, 25 µM, Repeat No 1): 82% | cell proliferation (HeLa cell line; 48h, 25 µM, Repeat No 2): 89% | cell proliferation (HeLa cell line; 48h, 50 µM, Repeat No 1): 85% | cell proliferation (HeLa cell line; 48h, 50 µM, Repeat No 2): 84% | cell proliferation (HeLa cell line; 48h, 75 µM, Repeat No 1): 77% | cell proliferation (HeLa cell line; 48h, 75 µM, Repeat No 2): 71% | cell proliferation (HeLa cell line; 48h, 100 µM, Repeat No 1): 81% | cell proliferation (HeLa cell line; 48h, 100 µM, Repeat No 2): 93% | MBC [4]: 250 µg/mL (≈ 405 µM) | MIC [4]: 125 µg/mL (≈ 202 µM) | MBC [5]: 500 µg/mL (≈ 809 µM) | MIC [5]: 125 µg/mL (≈ 202 µM)
